≈ marks a conversion by molar mass, not a printed value. Read-outs that look alike come from different tables or passages of the source.
Tests used:
[1] = Solubility Determination Assay in PBS pH 1.6 and pH 7.4; assay type: physicochemical; settings: PBS buffer, aqueous buffer, kinetic from dmso stock
How it was run: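 Compounds from 10 mM DMSO stock diluted into PBS pH 1.6 or pH 7.4 (15 μL into 485 μL), stirred 2 hours, then filtered. Filtrate quantified by LC-MS/MS against a standard of known concentration with internal standard; single determination.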

[2] = Hepatocyte Stability Assay, human; assay type: in vitro ADME; settings: cryopreserved hepatocytes in suspension; human hepatocytes; read-out: Human hepatocyte clearance
[3] = PBS pH 1.6, 25° C., read-out: Aq. Solubility at pH = 1.6
[4] = PBS pH 7.4, 25° C., read-out: Aq. Solubility at pH = 7.4

SMILES | solubility at 2 h [1, 3] | solubility at 2 h [1, 4] | CLint scaled at 1 μM [2]
C[C@@H](CO)n1cnc2c(-c3cccnc3)nc(-c3ccc(OC(F)(F)F)cc3)cc2c1=O [Compound 22] | ≥ 1 µM | ≥ 1 µM | < 1.2 L/h/kg
C[C@@H](n1cnc2c(-c3cccnc3)nc(-c3ccc(Cl)cc3)cc2c1=O)C(C)(C)O [Compound 33] | – | < 0.1 µM | < 1.2 L/h/kg
O=c1c2cc(-c3ccc(C(F)(F)F)cn3)nc(-c3cccnc3)c2ncn1C[C@@H](O)C(F)(F)F [Compound 154, (R)-8-(pyridin-3-yl)-3-(3,3,3-trifluoro-2-hydroxypropyl)-6-(5-(trifluoromethyl)pyridin-2-yl)pyrido[3,4-d]pyrimidin-4(3H)-one] | ≥ 1 µM | ≥ 1 µM | < 1.2 L/h/kg
C[C@@H](CO)n1cnc2c(-c3cccnc3)nc(-c3ccc(C(F)(F)F)nc3)cc2c1=O [Compound 12] | ≥ 1 µM | ≥ 1 µM | < 1.2 L/h/kg
C[C@@H](CO)n1cnc2c(-c3cccnc3)nc(-c3cnc(C4CC4)s3)cc2c1=O [Compound 66] | ≥ 1 µM | ≥ 1 µM | 1.2 to 3 L/h/kg
CC(C)(O)Cn1cnc2c(-c3cnsc3)nc(-c3ccc(C(F)(F)F)cn3)cc2c1=O [Compound 101, 3-(2-hydroxy-2-methylpropyl)-8-(isothiazol-4-yl)-6-(5-(trifluoromethyl)pyridin-2-yl)pyrido[3,4-d]pyrimidin-4(3H)-one] | 0.1 to 1 µM (≈ 0.0447 to 0.447 µg/mL) | < 0.1 µM | < 1.2 L/h/kg
CC(C)(O)Cn1cnc2c(-c3cccnc3)nc(-c3ccc(C4CC4)nc3)cc2c1=O [Compound 81] | ≥ 1 µM | ≥ 1 µM | < 1.2 L/h/kg
CC(C)(O)Cn1cnc2c(-c3cn[nH]c3)nc(-c3ccc(C(F)(F)F)nc3)cc2c1=O [Compound 51] | 0.1 to 1 µM (≈ 0.043 to 0.43 µg/mL) | 0.1 to 1 µM (≈ 0.043 to 0.43 µg/mL) | < 1.2 L/h/kg
Cn1cc(-c2nc(-c3ccc(C(F)(F)F)nc3)cc3c(=O)n(C[C@@H](O)C(F)(F)F)cnc23)cn1 [Compound 110, (R)-8-(1-methyl-1H-pyrazol-4-yl)-3-(3,3,3-trifluoro-2-hydroxypropyl)-6-(6-(trifluoromethyl)pyridin-3-yl)pyrido[3,4-d]pyrimidin-4(3H)-one] | < 0.1 µM | < 0.1 µM | < 1.2 L/h/kg
C[C@H](O)Cn1cnc2c(-c3cnn(C)c3)nc(-c3ccc(C(F)(F)F)cn3)cc2c1=O [Compound 142, (S)-3-(2-hydroxypropyl)-8-(1-methyl-1H-pyrazol-4-yl)-6-(5-(trifluoromethyl)pyridin-2-yl)pyrido[3,4-d]pyrimidin-4(3H)-one] | 0.1 to 1 µM (≈ 0.043 to 0.43 µg/mL) | 0.1 to 1 µM (≈ 0.043 to 0.43 µg/mL) | < 1.2 L/h/kg
Cn1cc(-c2nc(-c3ccc(C(F)(F)F)cn3)cc3c(=O)n([C@H]4COC[C@H]4O)cnc23)cn1 [Compound 151, 3-((3S,4S)-4-hydroxytetrahydrofuran-3-yl)-8-(1-methyl-1H-pyrazol-4-yl)-6-(5-(trifluoromethyl)pyridin-2-yl)pyrido[3,4-d]pyrimidin-4(3H)-one] | 0.1 to 1 µM (≈ 0.0458 to 0.458 µg/mL) | 0.1 to 1 µM (≈ 0.0458 to 0.458 µg/mL) | < 1.2 L/h/kg
C[C@@H](CO)n1cnc2c(-c3cccc(F)c3)nc(-c3ccc(Cl)cc3)cc2c1=O [Compound 7] | 0.1 to 1 µM (≈ 0.041 to 0.41 µg/mL) | < 0.1 µM | 1.2 to 3 L/h/kg
O=c1c2cc(-c3ccc(Cl)cc3)nc(-c3cccnc3)c2ncn1[C@@H]1COC[C@@H]1O (stereo in doubt) [Compound 71] | ≥ 1 µM | ≥ 1 µM | < 1.2 L/h/kg
Cn1cc(-c2nc(-c3cnc(C(F)(F)F)nc3)cc3c(=O)n(CC(C)(C)O)cnc23)cn1 [Compound 99] | ≥ 1 µM | 0.1 to 1 µM (≈ 0.0445 to 0.445 µg/mL) | < 1.2 L/h/kg
C[C@@H](CO)n1cnc2c(-c3cnn(C)c3)nc(-c3ccc(C(F)(F)F)nc3)cc2c1=O [Compound 68] | ≥ 1 µM | ≥ 1 µM | < 1.2 L/h/kg
C[C@H](n1cnc2c(-c3cccnc3)nc(-c3cccnc3)cc2c1=O)C(C)(C)O [Compound 34] | ≥ 1 µM | ≥ 1 µM | < 1.2 L/h/kg
CC(C)(O)Cn1cnc2c(-c3cnsc3)nc(-c3ccc(C(F)(F)F)nc3)cc2c1=O [Compound 54] | ≥ 1 µM | ≥ 1 µM | < 1.2 L/h/kg

SMILES | solubility at 2 h [1, 3] | solubility at 2 h [1, 4] | CLint scaled at 1 μM [2]
O=c1c2cc(-c3ccc(C4CC4)nc3)nc(-c3cccnc3)c2ncn1C[C@H](O)C(F)(F)F [Compound 120, (S)-6-(6-cyclopropylpyridin-3-yl)-8-(pyridin-3-yl)-3-(3,3,3-trifluoro-2-hydroxypropyl)pyrido[3,4-d]pyrimidin-4(3H)-one] | ≥ 1 µM | ≥ 1 µM | < 1.2 L/h/kg
Cn1cc(-c2nc(-c3ccc(C(F)(F)F)cn3)cc3c(=O)n(CC(C)(C)O)cnc23)cn1 [Compound 103, 3-(2-hydroxy-2-methylpropyl)-8-(1-methyl-1H-pyrazol-4-yl)-6-(5-(trifluoromethyl)pyridin-2-yl)pyrido[3,4-d]pyrimidin-4(3H)-one] | 0.1 to 1 µM (≈ 0.0444 to 0.444 µg/mL) | < 0.1 µM | < 1.2 L/h/kg
O=c1c2cc(-c3ccc(C(F)(F)F)nc3)nc(-c3cccnc3)c2ncn1[C@@H]1COC[C@H]1O [Compound 79] | ≥ 1 µM | ≥ 1 µM | < 1.2 L/h/kg
C[C@@H](O)Cn1cnc2c(-c3cccnc3)nc(-c3ccc(C(F)(F)F)cn3)cc2c1=O [Compound 144, (R)-3-(2-hydroxypropyl)-8-(pyridin-3-yl)-6-(5-(trifluoromethyl)pyridin-2-yl)pyrido[3,4-d]pyrimidin-4(3H)-one] | ≥ 1 µM | ≥ 1 µM | < 1.2 L/h/kg
O=c1c2cc(-c3ccc(C(F)(F)F)cn3)nc(-c3cccnc3)c2ncn1C[C@H](O)C(F)(F)F [Compound 104, (S)-8-(pyridin-3-yl)-3-(3,3,3-trifluoro-2-hydroxypropyl)-6-(5-(trifluoromethyl)pyridin-2-yl)pyrido[3,4-d]pyrimidin-4(3H)-one] | ≥ 1 µM | ≥ 1 µM | < 1.2 L/h/kg
O=c1c2cc(-c3ccc(Cl)cc3)nc(-c3cccnc3)c2ncn1C[C@H](O)C(F)(F)F (single isomer, unassigned) [185 enantiomer 2] | ≥ 1 µM | 0.1 to 1 µM (≈ 0.0447 to 0.447 µg/mL) | < 1.2 L/h/kg
Cn1cc(-c2nc(-c3ccc(C(F)(F)F)nc3)cc3c(=O)n([C@H]4COC[C@H]4O)cnc23)cn1 [Compound 88] | ≥ 1 µM | 0.1 to 1 µM (≈ 0.0458 to 0.458 µg/mL) | < 1.2 L/h/kg
C[C@H](O)Cn1cnc2c(-c3cccnc3)nc(-c3ccc(C(F)(F)F)cn3)cc2c1=O [Compound 143, (S)-3-(2-hydroxypropyl)-8-(pyridin-3-yl)-6-(5-(trifluoromethyl)pyridin-2-yl)pyrido[3,4-d]pyrimidin-4(3H)-one] | ≥ 1 µM | ≥ 1 µM | < 1.2 L/h/kg
CC(C)(O)Cn1cnc2c(-c3cccnc3)nc(-c3ccc(C(F)(F)F)cn3)cc2c1=O [Compound 105] | ≥ 1 µM | ≥ 1 µM | < 1.2 L/h/kg
C[C@@H](CO)n1cnc2c(-n3ccnc3)nc(-c3ccc(C(F)(F)F)nc3)cc2c1=O [Compound 163, (S)-3-(1-hydroxypropan-2-yl)-8-(1H-imidazol-1-yl)-6-(6-(trifluoromethyl)pyridin-3-yl)pyrido[3,4-d]pyrimidin-4(3H)-one] | ≥ 1 µM | ≥ 1 µM | < 1.2 L/h/kg
Cc1nc(-c2cc3c(=O)n([C@@H](C)CO)cnc3c(-c3cccnc3)n2)cs1 [Compound 183, (S)-3-(1-hydroxypropan-2-yl)-6-(2-methylthiazol-4-yl)-8-(pyridin-3-yl)pyrido[3,4-d]pyrimidin-4(3H)-one] | ≥ 1 µM | ≥ 1 µM | < 1.2 L/h/kg
O=c1c2cc(-c3ccc(C(F)(F)F)cn3)nc(-c3cccnc3)c2ncn1[C@H]1COC[C@@H]1O [Compound 139, 3-((3S,4R)-4-hydroxytetrahydrofuran-3-yl)-8-(pyridin-3-yl)-6-(5-(trifluoromethyl)pyridin-2-yl)pyrido[3,4-d]pyrimidin-4(3H)-one] | ≥ 1 µM | ≥ 1 µM | < 1.2 L/h/kg
C[C@@H](O)Cn1cnc2c(-c3cccnc3)nc(-c3ccc(C(F)(F)F)nc3)cc2c1=O [Compound 112, (R)-3-(2-hydroxypropyl)-8-(pyridin-3-yl)-6-(6-(trifluoromethyl)pyridin-3-yl)pyrido[3,4-d]pyrimidin-4(3H)-one] | ≥ 1 µM | ≥ 1 µM | < 1.2 L/h/kg
Cn1cc(-c2nc(-c3ccc(C4CC4)nc3)cc3c(=O)n(C[C@H](O)C(F)(F)F)cnc23)cn1 [Compound 136, (S)-6-(6-cyclopropylpyridin-3-yl)-8-(1-methyl-1H-pyrazol-4-yl)-3-(3,3,3-trifluoro-2-hydroxypropyl)pyrido[3,4-d]pyrimidin-4(3H)-one] | ≥ 1 µM | 0.1 to 1 µM (≈ 0.0456 to 0.456 µg/mL) | < 1.2 L/h/kg
Cc1ccc(-c2cc3c(=O)n([C@@H](C)CO)cnc3c(-c3cccnc3)n2)cc1 [Compound 17, (S)-3-(1-hydroxypropan-2-yl)-8-(pyridin-3-yl)-6-(p-tolyl)pyrido[3,4-d]pyrimidin-4(3H)-one] | ≥ 1 µM | ≥ 1 µM | 1.2 to 3 L/h/kg
C[C@@H](CO)n1cnc2c(-c3cnn(C)c3)nc(-c3ccc(Cl)cc3)cc2c1=O [Compound 27] | 0.1 to 1 µM (≈ 0.0396 to 0.396 µg/mL) | 0.1 to 1 µM (≈ 0.0396 to 0.396 µg/mL) | < 1.2 L/h/kg

From patent publication US20230295152A1 (SENDA BIOSCIENCES, INC., priority 2019, published 2023)
